How the values were obtained:
[1] = Chimp pharmacokinetics Run A, IV or PO co-dosing of atazanavir and Compounds 114, 120, 122; assay type: in vivo, chimpanzee; settings: for concentration at 24 h: concentration detected intact in urine
Method: Chimp Pharmacokineties. Run A: A 4 mg/mL solution of atazanavir and each of Compounds 114, 120 and 122 were prepared in 10% DMI (dimethyl isosorbide), 15% EtOH, 35% PG in D5W. Specifically, for each compound, 240 mgs of compound was dissolved in a solution composed of 6 mL of DMI, 9 mL of EtOH and 21 mL PG. Once the compound was fully dissolved, 24 mL of D5W was added and the solution mixed.
Fifty-five mL of each drug solution is then combined and the mixture was sterile filtered using a 0.2 μm filter. This produced 220 mL of a 1:1:1:1 mixture atazanavir:Compound 114:Compound 120:Compound 122. The final concentration of each drug in the solution was 1 mg/mL. Each animal received 50 mL of this solution through either IV or PO routes.
(§1) Four chimps (two male and two female) were used in this study and were fasted overnight prior to administration of the compound solution. Animals were sedated with ketamine and/or telazol prior to dosing. Intravenous dosing was achieved by IV infusion over 30 minutes.
(§2) Approximately 4.5 mL of blood was collected into vacutainer tubes with sodium heparin as an anticoagulant at 0 (preinfusion), 15 min., 29.5 min (immediately before the end of the infusion), and then at 6, 15, 30, and 45 minutes, and 1, 2, 4, 6, 8, 10, 12, 24 hours after the infusion is stopped. A similar procedure was used to collect blood after oral dosing with samples taken at 0 (predose), 15, and 30 minutes, and at 1, 1.5, 2, 4, 6, 8, 10, 12, 24 hours postdose. Following sample collection, the vacutainer tubes were rocked by hand several times to insure adequate mixing. Blood samples were placed immediately on wet ice and centrifuged within 1 hour from time of collection. Following centrifugation, the resulting plasma was stored frozen at −70° C. until analysis. The results are summarized in FIGS. 4 and 5 and tables 6 and 7.

in vivo = settings: chimpanzee, po
Method: as §1, §2
Run B: Same as Run A, except the dose was 150 mg orally of each of atazanavir and compounds 114 and 120, and the vehicle was 10 percent ethanol, 40 percent polypropylglycol in 2.5 percent citric acid.

SMILES | concentration detected intact in urine ([1]; chimpanzee, in vivo, iv, 24 h) [ng/mL] | concentration at 24 h ([1]; chimpanzee, in vivo, iv) [ng/mL] | concentration detected intact in urine ([1]; chimpanzee, in vivo, po, 24 h) [ng/mL] | concentration at 24 h ([1]; chimpanzee, in vivo, po) [ng/mL] | concentration detected intact in urine (in vivo; 24 h) [ng/mL] | concentration at 24 h (in vivo; concentration detected intact in urine) [ng/mL] | Ratio of urine concentration, compound:Atazanavir ([1]; chimp A242E, PO, 24 hours, Run A) | Ratio of urine concentration, compound:Atazanavir ([1]; chimp A336C, IV, 24 hours, Run A) | Ratio of urine concentration, compound:Atazanavir ([1]; chimpanzee, in vivo, iv, 24 h) | Ratio of urine concentration, compound:Atazanavir ([1]; chimpanzee, in vivo, po, 24 h)
COC(=O)N[C@H](C(=O)N[C@@H](Cc1ccccc1)[C@@H](O)CN(Cc1ccc(-c2ccccn2)cc1)NC(=O)[C@@H](NC(=O)OC)C(C)(C)C)C(C)(C)C [Atazanavir, atazanavir, reference compound] | 1790 | 2000 | 516 | 569 | 3260 | 1640 |  |  |  | 
[2H]C([2H])([2H])OC(=O)N[C@H](C(=O)N[C@@H](Cc1ccccc1)[C@@H](O)CN(Cc1ccc(-c2ccccn2)cc1)NC(=O)[C@@H](NC(=O)OC([2H])([2H])[2H])C(C([2H])([2H])[2H])(C([2H])([2H])[2H])C([2H])([2H])[2H])C(C([2H])([2H])[2H])(C([2H])([2H])[2H])C([2H])([2H])[2H] [Compound 122, 1,14-Di(methyl-d3)(3S,8S,9S,12S)-3,12-bis[(1,1-dimethylethyl)-d9]-8-hydroxy-4,11-dioxo-9-(phenylmethyl)-6-[[4-(2-pyridinyl)phenyl]methyl]-2,5,6,10,13-pentaazatetradecanedioate] | 3250 | 3130 | 1180 | 1280 |  |  | 2.25 | 1.82 | 1.57 | 2.29

Source: patent US8258309B2, “Azapeptide derivatives” (priority 2007, dated 2012)
